Source: ChEMBL document CHEMBL1201862, “PubChem BioAssay data set” (2004)
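Tested at 5 concentrations; 48 h exposure; 96-well plates; endpoints linearly interpolated, else capped at highest concentration. Abbreviation: GI50, concentration required for 50% inhibition of growth.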 Active and inactive are the calls of the source. No stated cut-off is given here; in the data, active = GI50 up to about 1.1 µM and inactive = higher.

Legend:
Assay in all cases: inhibition of tumour cell growth, NCI panel, 48 h
786-0 = system: 786-0
A498 = system: A498
A549 = system: A549
ACHN = system: ACHN
CAKI-1 = system: CAKI-1
CCRF-CEM = system: CCRF-CEM
COLO 205 = system: COLO 205
DLD-1 = system: DLD-1
DMS-114 = system: DMS-114
DMS-273 = system: DMS-273
EKVX = system: EKVX
HCC 2998 = system: HCC 2998
HCT-116 = system: HCT-116
HCT-15 = system: HCT-15
HL-60 = system: HL-60
HOP-18 = system: HOP-18
HOP-62 = system: HOP-62
HOP-92 = system: HOP-92
HT-29 = system: HT-29
IGROV-1 = system: IGROV-1
K562 = system: K562
KM-20L2 = system: KM-20L2
KM12 = system: KM12
LOX IMVI = system: LOX IMVI
LXFL 529 = system: LXFL 529
M14 = system: M14
M19-MEL = system: M19-MEL
MOLT-4 = system: MOLT-4
Malme-3M = system: Malme-3M
NCI-H226 = system: NCI-H226
NCI-H23 = system: NCI-H23
NCI-H460 = system: NCI-H460
NCI-H522 = system: NCI-H522
OVCAR-3 = system: OVCAR-3
OVCAR-4 = system: OVCAR-4
OVCAR-5 = system: OVCAR-5
OVCAR-8 = system: OVCAR-8
RXF 393 = system: RXF 393
RXF 631 = system: RXF 631
SF-268 = system: SF-268
SF-295 = system: SF-295
SF-539 = system: SF-539
SK-MEL-28 = system: SK-MEL-28
SK-MEL-2 = system: SK-MEL-2
SK-MEL-5 = system: SK-MEL-5
SK-OV-3 = system: SK-OV-3
SN12C = system: SN12C
SNB-19 = system: SNB-19
SNB-75 = system: SNB-75
SNB-78 = system: SNB-78
SR = system: SR
TK-10 = system: TK-10
U-251 = system: U-251
UACC-257 = system: UACC-257
UACC-62 = system: UACC-62
UO-31 = system: UO-31
XF498 = system: XF498

Q: With `CC1(C)C(=NNC(=O)C[N+](C)(C)C)C(C)(C)C1=NNC(=O)C[N+](C)(C)C` as the molecule, how does the GI50 (786-0) read?
A: > 100 µM (inactive)

Q: What about the GI50 (A498) of the same molecule?
A: > 100 µM (inactive)

Q: What about the GI50 (A549) of the same molecule?
A: > 100 µM (inactive)

Q: And the GI50 (ACHN)?
A: > 100 µM (inactive)

Q: And the GI50 (CAKI-1)?
A: > 100 µM (inactive)

Q: What about the GI50 (CCRF-CEM) of the same molecule?
A: > 100 µM (inactive)

Q: And the GI50 (COLO 205)?
A: > 100 µM (inactive)

Q: And the GI50 (DLD-1)?
A: > 100 µM (inactive)

Q: And the GI50 (DMS-114)?
A: > 100 µM (inactive)

Q: And the GI50 (DMS-273)?
A: 42.2 µM (inactive)

Q: What about the GI50 (EKVX) of the same molecule?
A: > 100 µM (inactive)

Q: And the GI50 (HCC 2998)?
A: > 100 µM (inactive)

Q: What about the GI50 (HCT-116) of the same molecule?
A: > 100 µM (inactive)

Q: What about the GI50 (HCT-15) of the same molecule?
A: > 100 µM

Q: What about the GI50 (HL-60) of the same molecule?
A: > 100 µM (inactive)

Q: What about the GI50 (HOP-18) of the same molecule?
A: > 100 µM (inactive)

Q: What about the GI50 (HOP-62) of the same molecule?
A: > 100 µM (inactive)

Q: And the GI50 (HOP-92)?
A: > 100 µM (inactive)

Q: And the GI50 (HT-29)?
A: > 100 µM (inactive)

Q: What about the GI50 (IGROV-1) of the same molecule?
A: > 100 µM (inactive)

Q: What about the GI50 (K562) of the same molecule?
A: > 100 µM (inactive)

Q: And the GI50 (KM-20L2)?
A: > 100 µM (inactive)

Q: And the GI50 (KM12)?
A: > 100 µM (inactive)

Q: What about the GI50 (LOX IMVI) of the same molecule?
A: 72.9 µM (inactive)

Q: What about the GI50 (LXFL 529) of the same molecule?
A: > 100 µM (inactive)

Q: And the GI50 (M14)?
A: > 100 µM (inactive)

Q: What about the GI50 (M19-MEL) of the same molecule?
A: > 100 µM (inactive)

Q: And the GI50 (MOLT-4)?
A: > 100 µM (inactive)

Q: And the GI50 (Malme-3M)?
A: > 100 µM (inactive)

Q: What about the GI50 (NCI-H226) of the same molecule?
A: > 100 µM (inactive)

Q: What about the GI50 (NCI-H23) of the same molecule?
A: > 100 µM (inactive)

Q: And the GI50 (NCI-H460)?
A: > 100 µM (inactive)

Q: And the GI50 (NCI-H522)?
A: 82.4 µM (inactive)

Q: And the GI50 (OVCAR-3)?
A: > 100 µM (inactive)

Q: And the GI50 (OVCAR-4)?
A: > 100 µM (inactive)

Q: What about the GI50 (OVCAR-5) of the same molecule?
A: > 100 µM (inactive)

Q: What about the GI50 (OVCAR-8) of the same molecule?
A: > 100 µM (inactive)

Q: What about the GI50 (RXF 393) of the same molecule?
A: > 100 µM (inactive)

Q: And the GI50 (RXF 631)?
A: > 100 µM (inactive)

Q: What about the GI50 (SF-268) of the same molecule?
A: > 100 µM (inactive)

Q: And the GI50 (SF-295)?
A: > 100 µM (inactive)

Q: What about the GI50 (SF-539) of the same molecule?
A: > 100 µM (inactive)

Q: And the GI50 (SK-MEL-28)?
A: > 100 µM (inactive)

Q: And the GI50 (SK-MEL-2)?
A: > 100 µM (inactive)

Q: What about the GI50 (SK-MEL-5) of the same molecule?
A: > 100 µM (inactive)

Q: What about the GI50 (SK-OV-3) of the same molecule?
A: > 100 µM (inactive)

Q: What about the GI50 (SN12C) of the same molecule?
A: > 100 µM (inactive)

Q: What about the GI50 (SNB-19) of the same molecule?
A: > 100 µM (inactive)

Q: What about the GI50 (SNB-75) of the same molecule?
A: > 100 µM (inactive)

Q: And the GI50 (SNB-78)?
A: > 100 µM (inactive)

Q: What about the GI50 (SR) of the same molecule?
A: > 100 µM (inactive)

Q: What about the GI50 (TK-10) of the same molecule?
A: > 100 µM (inactive)

Q: And the GI50 (U-251)?
A: > 100 µM (inactive)

Q: And the GI50 (UACC-257)?
A: > 100 µM (inactive)

Q: And the GI50 (UACC-62)?
A: > 100 µM (inactive)

Q: What about the GI50 (UO-31) of the same molecule?
A: > 100 µM (inactive)

Q: What about the GI50 (XF498) of the same molecule?
A: > 100 µM (inactive)
